Laboratory results from US11059800B2, “Dehydroleucodine derivatives and uses thereof” (Bioventures, LLC, priority 2013, dated 2021).

What was measured:
[1] = tested on: eight human leukemia cell lines
Protocol: Cell lines were cultured in Iscove's Modified Dulbecco's Medium (IMDM) supplemented with 10%˜20% fetal bovine serum (FBS) according to culture conditions indicated by ATCC and 1% penicillin/streptomycin (Pen/Strep) at 37° C. and 5% CO2. The cells were seeded into 96-well plates and kept at a concentration of 0.5 million cells per mL. […] Cell viability was determined after incubating for 48 hours. The cells were stained with annexin V-fluorescein isothiocyanate or phycoeritrine (FITC/PE) and 7-aminoactinomycin (7-AAD) to detect phosphatidylserine exposition and cell permeability, respectively. At least 50,000 events were recorded per condition on either an LSR-II or LSR-Fortessa flow cytometer (BD Biosciences). Data analysis was conducted using FlowJo 9.6 software for Mac OS X (TreeStar). Cells that were negative for annexin V and 7-AAD were scored as viable.

HMOX1 (Heme oxygenase 1) = experiment: Quantitative PCR of HMOX1 in MOLM-13 or MV-411 cells; type: cell-based; conditions: 20 μM, 6 hours, MOLM-13 and MV-411 cells
Protocol: (§1) (FIG. 8A) Graphical representation of the fold changes of HMOX-1 in MOLM-13 cells. Cells were seeded at 0.5 million cells per milliliter and subject to 20 μM of DHL, leucodine, DHL-proline, DHL-piperidine, DHL-morpholine, or parthenolide for 6 hours. RNA was then extracted and quantitative PCR was performed. Experiments were performed in triplicates. Lines represent mean for each specimen, with error bars representing the SD. Fold change was calculated by the delta-delta Ct method. […] (FIG. 8D) Immunoblot for MOLM-13 cells after 6 hours of treatment with either DHL or PTL with 10 or 20 μM. Blot was probed for phospho-p65 and p65 antibodies. Total p65 is shown as the loading control.
(FIG. 9A) Graphical representation of the fold changes of HMOX-1 in MV-411 cells. Cells were seeded at 0.5 million cells per milliliter and subject to 20 μM of DHL, leucodine, DHL-proline, DHL-piperidine, DHL-morpholine, or parthenolide for 6 hours. RNA was then extracted and quantitative PCR was performed. Experiments were performed in triplicates. Lines represent mean for each specimen, with error bars representing the SD. Fold change was calculated by the delta-delta Ct method. (FIG. 9B) Graphical representation of the fold changes of HSPA1A in MV-411 cells, with the same experimental setup and analysis as FIG. […].
(§2) To compare these intracellular effects of DHL and its derivatives, quantitative PCR was performed (FIG. 8 and FIG. 9). MOLM-13 or MV-411 cells were seeded at 0.5 million cells per milliliter. Cells were treated for 6 hours with 20 μM of DHL, Leucodine, DHL-Morpholine, DHL-Proline, DHL-Piperidine or PTL, and then collected. Total RNA was extracted using the Qiashredder and Qiagen Rneasy Mini kits. […] Quantitative PCR was performed using probes for HMOX-1 (Hs01110251_m1), HSPA1A (Hs00359163_s1), and NFKB1 (Hs00765730_m1). […] Single-plex real-time PCR was performed in triplicates in a StepOne plus RealTime PCR system and analyzed with the StepOne Software. Fold change was calculated using the 2-DDCT method described by Livak and Schmittgen.

NF-κB = experiment: Quantitative PCR of NF-κB transcript in MOLM-13 and MV-411 cells; type: cell-based; conditions: 20 μM, 6 hours
Protocol: as §1
as §2, with “collected.” for “collected. Total RNA was extracted using the Qiashredder and Qiagen Rneasy Mini kits.”

HCT-116 = experiment: Single dose tumor cell growth inhibition, Colon Cancer HCT-116; type: cell-based, human; conditions: HCT-116, single dose 10 μM
Excerpt: DHL is cytotoxic to various leukemia, colon cancer, CNS cancer and prostate cancer cell lines.

C=C1C(=O)O[C@@H]2[C@H]3C(C)=CC(=O)C3=C(C)CC[C@@H]12 [DHL, dehydroleucodine]
anti-leukemic activity / in vitro cytotoxicity [1]: more potent anti-leukemic activity than PTL in most samples
LD50 values in the various leukemic cell lines tested ([1]; range over the AML cell lines, 48 hours of treatment): 5.02 to 18.95 µM
HMOX1 expression, fold change (HMOX1 (Heme oxygenase 1)): upregulated
NF-κB transcript levels (NF-κB): slightly downregulated
Percent inhibition (HCT-116): 41.3%
